# Data: patent publication US10617697B2, “Extracts of edible fungi enriched in vitamin D and compostions thereof and their use in the treatment of immune-related disorders” (GAVISH-GALILEE BIO APPLICATIONS LTD, priority 2015, dated 2020)
# Test system: immune-mediated hepatitis harboring mice
# Test: ConA hepatitis in mice, serum liver enzymes after oral pre-treatment
# Assay type: in vivo, C57BL/6 mice
# Conditions: for ALT serum levels: serum 16 hours after ConA
# Procedure: Male C57BL/6 mice (11-12 weeks old) were obtained from Harlan Laboratories (Jerusalem, Israel) and maintained in the Animal Core of the Hadassah-Hebrew University Medical School. Mice were administered standard laboratory chow and water ad libitum and kept in a 12 hour light/dark cycle. Animal experiments were carried out according to the guidelines of the Hebrew University-Hadassah Institutional Committee for Care and Use of Laboratory Animals and with the committee's approval.
# Concanavalin A (ConA, MP Biomedicals, USA) was dissolved in 50 mM Tris pH 7, 150 mM NaCl, 4 mM CaCl2 and was injected into the tail vein at a dose of 500 μg/mouse (15 mg/kg) in the first experiment, and 400 μg/mouse in the second experiment. Mice were sacrificed 16 hours following ConA injection. Blood and liver tissue were collected for further analysis
# Two consecutive experiments were conducted. In the first study, 4 groups of mice were studied (n=5-6 mice/group). Mice in control group were treated 2 hours before ConA injection with DDW (di distilled water). The first treated group received vitamin D oral supplement (1 IU of vitamin D in saline) twice daily for 3 days prior to Concanavalin A-induced immune liver damage. The second treated group was treated orally with crude freeze-dried biomass derived from Lentinula edodes (LE) edible mushrooms (7.5 mg of mushrooms) at the same timing and frequency, while the third treated group was treated with vitamin D enriched LE (7.5 mg of freeze-dried mushrooms containing 1.125 IU of vitamin D). In a subsequent study, four groups of mice (n=5-7 mice/group) were treated by the same protocol detailed above, but the frequency of the oral treatment was increased from two to three times daily.
# Serum was obtained from individual mice after sacrifice. The serum aspartate aminotransferase (AST) and alanine aminotransferase (ALT) levels were determined with an automatic analyzer.
compound,measurement,setting,value
"C=C1CC[C@H](O)C/C1=C/C=C1\CCC[C@]2(C)[C@@H]([C@H](C)/C=C/[C@H](C)C(C)C)CC[C@@H]12 [vitamin D, ergocalciferol]",proportion of severe liver injury (defined as ALT>2611 U/L),"first experiment, oral twice daily for 3 days before ConA",60%
same,ALT serum levels,"first experiment, oral twice daily for 3 days before ConA 500 μg/mouse",2802 U/L
same,proportion of severe liver injury (defined as ALT >2000 U/L),"second experiment, oral three times daily for 3 days before ConA",100%
same,proportion of severe liver injury by AST (defined as AST>2000 U/L),"second experiment, oral three times daily for 3 days before ConA, data not shown",100%
same,ALT serum levels,"second study, oral three times daily for 3 days before ConA 400 μg/mouse",4040 U/L
